Source: EP0326640B1, “(1R,5S,6S)-2-substituted thio-6 (R)-1-hydroxyethyl -1-methyl-carbapenem - carboxylic acid derivatives” (LEDERLE (JAPAN) LTD., priority 1987, dated 1989)
≈ marks a conversion by molar mass, not a printed value. Read-outs that look alike come from different tables or passages of the source.

Key:
Type in all cases: cell-based
[1] = system: Salmonella typhi 901; assay: Antibacterial test, agar plate dilution method (MIC), standard strains; conditions: Salmonella enterica, TYPHI, 18 h, MH agar, 37°C
Experimental: (§1) The antibacterial activities were tested by an agar plate dilution method in accordance with the standard method of The Japanese Chemotherapy Society [Chemotherapy, Vol. 29, 76-79 (1981)].
(§2) A Mueller-Hinton (MH) agar liquid medium of a test microorganism was cultured overnight at 37°C and the resultant culture medium was diluted with a buffered saline gelatin (BSG) solution to contain approximately 10⁶ cells of the test microorganisms per milliliter, and then the diluted solution was inoculated with a microplanter at the rate of approximately 5 microliters on a MH agar medium containing a test compound. This medium was then incubated at 37°C for 18 hours. The minimum inhibitory concentration (MIC) is determined as a minimum concentration in which no test microorganism could grow. It is noted here that the test organisms used were all standard strains.

[2] = system: Pseudomanas aeruginosa NCTC 10940; assay: as above; conditions: 18 h, MH agar, 37°C, read-out: MIC
Experimental: as §1, §2

[3] = system: Serratia marcescens IAM1184; assay: as above; conditions: MH agar, 37°C
Experimental: as §1, §2

[4] = system: Proteus mirabilis IFO3849; assay: as above; conditions: Proteus mirabilis, IFO3849, 18 h
Experimental: as §1, §2

[5] = system: Providencia rettgeri IFO 3850; assay: as above; conditions: Providencia rettgeri, IFO3850, 18 h, MH agar, 37°C, read-out: MIC
Experimental: as §1, §2

[6] = system: Morganella morganii IFO3848; assay: as above; conditions: Morganella morganii, IFO3848, 18 h, MH agar, 37°C, read-out: MIC
Experimental: as §1, §2

[7] = system: Salmonella schottmuelleri 8006; assay: as above; conditions: MH agar, 37°C, 18 hours, read-out: MIC
Experimental: as §1, §2

[8] = system: Salmonella enteritidis G14; assay: as above; conditions: Salmonella enterica, MH agar, 37°C
Experimental: as §1, §2

[9] = system: Pseudomonas aeruginosa IFO 3445; assay: as above; conditions: IFO3445, MH agar, 37°C, 18 hours, read-out: MIC
Experimental: as §1, §2

[10] = system: Proteus vulgaris HX-19; assay: as above; conditions: Proteus vulgaris, HX19, 18 h
Experimental: as §1, §2

[11] = system: Proteus vulgaris OX-19; assay: as above; conditions: Proteus vulgaris, OX19, 18 h
Experimental: as §1, §2

[12] = system: Salmonella paratyphi 1015; assay: as above; conditions: Salmonella enterica, MH agar, 37°C, 18 hours, read-out: MIC
Experimental: as §1, §2

[13] = system: Pseudomonas aeruginosa GN 918; assay: Antibacterial activity against clinically isolated β-lactamase (cephalosporinase) producing strains (MIC); conditions: GN918; Pseudomonas aeruginosa GN 918; cephalosporinase producing strain, SDA, 18 to 20 hours; read-out: MIC
Experimental: (§3) The antibacterial activities against clinically isolated β-lactamase producing strains were tested by the agar plate dilution method in accordance with the standard method of The Japanese Chemotherapy Society [Chemotherapy, Vol. 29, 76-79 (1981)]. A solution of a cephalosporinase producing strain stored by Episome Research Institute, prepared by incubating the strain in a sensitivity test broth (STB; product of Nissui K. K.) for 18 hours, was diluted with a fresh STB solution so that the solution contained 10⁶ cells per milliliter. The diluted solution was then inoculated as spots in a microplanter on a sensitivity disk agar-N (SDA; product of Nissui K. K.) containing a test compound. The disk agar was then incubated for 18 to 20 hours. The minimum inhibitory concentration was determined as a minimum concentration in which the test microorganism no longer grew after a 18 to 20-hour incubation.

[14] = system: Proteus vulgaris GN 7919; assay: as above; conditions: cephalosporinase producing strain, SDA, 18 to 20 hours
Experimental: as §3

[15] = system: Enterobacter cloacae GN 5797; assay: as above; conditions: GN5797, cephalosporinase producing strain, SDA, 18 to 20 hours, read-out: MIC
Experimental: as §3

[16] = system: Providencia rettgeri GN 4762; assay: as above; conditions: Providencia rettgeri, GN4762, Providencia rettgeri GN 4762; cephalosporinase producing strain, SDA, 18 to 20 hours; read-out: MIC
Experimental: as §3

[17] = system: Providencia rettgeri GN 4430; assay: as above; conditions: GN4430, cephalosporinase producing strain, SDA, 18 to 20 hours, read-out: MIC
Experimental: as §3

[18] = system: Escherichia coli GN 5482; assay: as above; conditions: GN5482, cephalosporinase producing strain, SDA, 18 to 20 hours, read-out: MIC
Experimental: as §3

[19] = system: Klebsiella oxytoca GN 10650; assay: as above; conditions: Klebsiella oxytoca, GN10650, Klebsiella oxytoca GN 10650; cephalosporinase producing strain, SDA, 18 to 20 hours; read-out: MIC
Experimental: as §3

[20] = system: Proteus morganii GN 5407; assay: as above; conditions: Morganella morganii, GN5407, cephalosporinase producing strain, SDA, 18 to 20 hours, read-out: MIC
Experimental: as §3

[21] = system: Enterobacter cloacae GN 7471; assay: as above; conditions: GN7471, cephalosporinase producing strain, SDA, 18 to 20 hours, read-out: MIC
Experimental: as §3

[22] = system: Proteus vulgaris GN 76; assay: as above; conditions: Proteus vulgaris, GN76, Proteus vulgaris GN 76; cephalosporinase producing strain, SDA, 18 to 20 hours; read-out: MIC
Experimental: as §3

[23] = system: Proteus vulgaris GN 4413; assay: as above; conditions: Proteus vulgaris
Experimental: as §3

[24] = system: Serratia marcescens GN 10857; assay: as above; conditions: Serratia marcescens, GN10857, Serratia marcescens GN 10857; cephalosporinase producing strain, SDA, 18 to 20 hours; read-out: MIC
Experimental: as §3

[25] = system: Proteus morganii GN 5307; assay: as above; conditions: cephalosporinase producing strain, SDA, 18 to 20 hours
Experimental: as §3

[26] = system: Escherichia coli No. 96; assay: as above; conditions: cephalosporinase producing strain, SDA, 18 to 20 hours, read-out: MIC
Experimental: as §3

Row | SMILES | MIC [1] [µg/mL] | MIC [2] [µg/mL] | MIC [5] [µg/mL] | MIC [6] [µg/mL] | MIC [7] [µg/mL] | MIC [9] [µg/mL] | MIC [10] [µg/mL] | MIC [11] [µg/mL] | MIC [12] [µg/mL] | MIC [13] [µg/mL] | MIC [15] [µg/mL] | MIC [16] [µg/mL] | MIC [17] [µg/mL] | MIC [18] [µg/mL] | MIC [19] [µg/mL] | MIC [20] [µg/mL] | MIC [21] [µg/mL] | MIC [22] [µg/mL] | MIC [24] [µg/mL] | MIC [26] [µg/mL] | further results
1 | C[C@@H](O)[C@H]1C(=O)N2C(C(=O)[O-])=C(SCc3cs[n+](C)n3)[C@H](C)[C@H]12 [Amorphous Compd. (14), (1R,5S,6S)-2-[(2-methyl-1,2,3-thiadiazolium-4-yl)methyl]thio-6-[(R)-1-hydroxyethyl]-1-methyl-carbapenem-3-carboxylate] | 0.025 (≈ 0.0703 µM) | 0.39 (≈ 1.1 µM) | 0.05 (≈ 0.141 µM) | 0.39 (≈ 1.1 µM) | 0.39 (≈ 1.1 µM) | 0.39 (≈ 1.1 µM) | 1.56 (≈ 4.39 µM) | 1.56 (≈ 4.39 µM) | 1.56 (≈ 4.39 µM) | 0.78 (≈ 2.19 µM) | 0.1 (≈ 0.281 µM) | 0.39 (≈ 1.1 µM) | 0.39 (≈ 1.1 µM) | 0.05 (≈ 0.141 µM) | 0.39 (≈ 1.1 µM) | 6.25 (≈ 17.6 µM) | 0.1 (≈ 0.281 µM) | 6.25 (≈ 17.6 µM) | 6.25 (≈ 17.6 µM) | 0.05 (≈ 0.141 µM) | MIC ([3]; 18 hours): 0.2 µg/mL (≈ 0.563 µM); MIC ([4]; Proteus mirabilis IFO3849, MH agar, 37°C, 18 hours, read-out: MIC): 6.25 µg/mL (≈ 17.6 µM); MIC ([8]; ENTERITIDIS, 18 h): 1.56 µg/mL (≈ 4.39 µM); MIC ([14]; Proteus vulgaris GN 7919): 6.25 µg/mL (≈ 17.6 µM); MIC ([23]; GN4413, Proteus vulgaris GN 4413, cephalosporinase producing strain, SDA, 18 to 20 hours, read-out: MIC): 6.25 µg/mL (≈ 17.6 µM); MIC ([25]; Proteus morganii GN 5307): 3.13 µg/mL (≈ 8.81 µM)
2 | C[C@@H](O)[C@H]1C(=O)N2C(C(=O)O)=C(SCCN=CN)C[C@H]12 [Imipenem, imipenem] | 0.1 (≈ 0.334 µM) | 0.78 (≈ 2.61 µM) | 0.78 (≈ 2.61 µM) | 0.39 (≈ 1.3 µM) | 0.78 (≈ 2.61 µM) | 0.78 (≈ 2.61 µM) | 1.56 (≈ 5.21 µM) | 1.56 (≈ 5.21 µM) | 1.56 (≈ 5.21 µM) | 0.78 (≈ 2.61 µM) | 0.39 (≈ 1.3 µM) | 0.39 (≈ 1.3 µM) | 0.39 (≈ 1.3 µM) | 0.1 (≈ 0.334 µM) | 0.2 (≈ 0.668 µM) | 3.13 (≈ 10.5 µM) | 0.2 (≈ 0.668 µM) | 3.13 (≈ 10.5 µM) | 3.13 (≈ 10.5 µM) | 0.1 (≈ 0.334 µM) | MIC ([3]; Serratia marcescens, IAM1184, 18 h, read-out: MIC): 0.39 µg/mL (≈ 1.3 µM); MIC [4]: 6.25 µg/mL (≈ 20.9 µM); MIC ([8]; 18 hours, read-out: MIC): 0.78 µg/mL (≈ 2.61 µM); MIC ([14]; Proteus vulgaris, GN7919, Proteus vulgaris GN 7919, read-out: MIC): 0.39 µg/mL (≈ 1.3 µM); MIC ([23]; GN4413): 6.25 µg/mL (≈ 20.9 µM); MIC ([25]; Morganella morganii, GN5307, Proteus morganii GN 5307, read-out: MIC): 0.78 µg/mL (≈ 2.61 µM)
